≈ marks a conversion by molar mass, not a printed value. Like-named read-outs stand apart in the source and are kept apart here. Bridge positions count the residues as written; N and C are the ends. Square brackets hold non-standard residues; d marks the D form. Peptide text beside a SMILES is read from it. * marks the point of attachment. Lauroyl = CCCCCCCCCCCC(=O)*; X1 = CC[C@H](C)CCCCC(=O)*; Nle = CCCC[C@H](N)C(=O)O; Dab = NCC[C@H](N)C(=O)O
Tests used:
S. aureus = assay: microbe, parasite or virus in culture; assay type: cell-based, Staphylococcus aureus; conditions: for MIC: Staphylococcus aureus
Protocol: (§1) MICs were measured after 18–20 h of incubation in sterile 96-well plates (Corning Costar 3598 microtiter plates) in Mueller Hinton Broth (MHB) culture medium, (Difco, USA), according to well known in vitro protocols. Bacterial strains in Table 1 were: P. aeruginosa ATTC 9027, E. coli ATTC 8739, S. aureus ATTC 6538, and E. faecalis ATTC 29212. MICs shown in table 4 were performed by Mary Conrad at Cubist Pharmaceuticals (Lexington, MA) in non-binding surface plates.

P. aeruginosa ATTC 9027 = assay type: cell-based, Pseudomonas aeruginosa
Protocol: as §1

E. coli ATTC 8739 = assay type: cell-based, Escherichia coli
Protocol: as §1

E. faecalis ATTC 29212 = assay: microbe, parasite or virus in culture; assay type: cell-based, Enterococcus faecalis
Protocol: Lipopeptide 39 was chosen for this, as it is known that long fatty acids tend to favor activity against Gram-positive bacteria in polymyxin analogs. […] In summary, new broad-spectrum antimicrobial lipopeptides were achieved.
as §1

E. coli = conditions: for MIC E. coli NDM-1: highly-resistant, New Delhi metallo-beta-lactamase gene; for MIC E. coli VAL 5 / MIC E. coli MAC 21a / MIC E. coli VAL 10: resistant to nalidixic acid; for MIC E. coli MAC 21a / MIC E. coli VAL 10: cotrimoxazole and ampicillin
Protocol: (§2) Strains of E. coli and P. aeruginosa with resistance to quinolones and carbapenems as well as multi-drug-resistant bacteria were tested.
as §1

P. aeruginosa = system: P. aeruginosa
Protocol: as §2, §1

S. aureus ATTC 6538 = assay: microbe, parasite or virus in culture; assay type: cell-based, Staphylococcus aureus
Protocol: as §1

E. coli (ATCC 25922) [1] = assay: Flow cytometry (PI membrane permeability, BOX membrane potential), E. coli; assay type: cell-based, Escherichia coli; conditions: 0.5 μg/mL
Protocol: The mechanism of action at the membrane level of our best candidate was studied using flow cytometry. To assess membrane permeability, a propidium iodide (PI) probe was used[43][44]. The fluorescence conferred by this probe is generally associated with cells that have lost their membrane integrity. The effect on membrane potential was evaluated with bis-(1,3-dibutylbarbituric acid) trimethine oxonol (BOX). Membrane depolarization leads to the incorporation of this anionic dye into the cell where it binds to lipid-rich intracellular compounds, resulting in an increase in fluorescence.
(§3) An overnight culture (12 to 16 h) of S. aureus (ATCC 29213) or E. coli (ATCC 25922) in Tryptic Soy Broth (TSB) was grown at 37 °C and 400 μL were added in 50 mL of tryptone water (∼10^7 bacteria/mL). The bacterial suspension was split into aliquots of 4-5 mL and treated with the peptides (at the MIC) for different incubation times at room temperature. Cells were collected by centrifugation (10000 rpm, 20 min) and resuspended in 1 mL of filtered Ringer’s solution.
A stock solution of propidium iodide (PI, 1 mg/mL, Molecular Probes) and bis-(1,3-dibutylbarbituric acid) trimethine oxonol (BOX, 250 μM, Sigma Aldrich) was prepared in distilled water. Portions (10 μL and 2 μL, respectively) were added to aliquots of cells (100 μL of each sample in 1 mL of Ringer’s solution) to give a final concentration of 10 μg/mL of PI and 0.5 μM for BOX.
Flow cytometric measurements were performed on a Gallios multi-colour flow cytometer instrument (Beckman Coulter, Inc, Fullerton, CA) set up with the 3-lasers 10 colors standard configuration. Excitation was done using a blue (488 nm) laser. Forward scatter (FS), side scatter (SS), green fluorescence (525/40 nm) from BOX and red fluorescence (620/30 nm) emitted by PI were collected using logarithmic scales. FS was used as the discriminating parameter. The single-cell bacterial population was selected on a forward-side scatter plot. Fluorescence was presented in a dot plot of BOX vs. PI. Three regions were defined on this graph according to the controls: depolarized, permeabilized and non-affected cells. Control cells (non-stained and single stained populations) were used to define these regions. 25,000 cells defined according to their scatter parameters were counted in each sample.

E. coli (ATCC 25922) [2] = assay: Reduction of viability by plate count, E. coli; assay type: cell-based, Escherichia coli; conditions: 0.5 μg/mL
Protocol: as §3

E. coli (ATCC 25922) [3] = assay: Transmission electron microscopy of treated E. coli; assay type: cell-based, Escherichia coli; conditions: 120 min at 0.5 μg/mL
Protocol: An overnight culture (12 to 16 h) of S. aureus (ATCC 29213) or E. coli (ATCC 25922) in Tryptic Soy Broth (TSB) was grown at 37 °C and 500 μL were added in 50 mL of tryptone water (∼10^8 bacteria/mL). […] Cells were collected by centrifugation (10000 rpm, 20 min).
Samples were fixed with 2.5% glutaraldehyde in phosphate buffer for 2 h at 4 °C, then washed with the same buffer and post fixed with 1% osmium tetroxide in buffer containing 0.8% potassium ferricyanide at 4 °C. The samples were then dehydrated for 1 hour in acetone and infiltrated in a gradded series of Epon resin (Ted Pella Inc., USA) during 2 days, and finally embedded in fresh Epon resin and polymerised at 60 °C during 48 hours.
Ultrathin sections were obtained using a Leica Ultracut UCT ultramicrotome (Leica, Vienna) and mounted on Formvar-coated copper grids. Sections were stained with 2% aqueous uranyl acetate and lead citrate and examined in a JEM-1010 electron microscope (Jeol, Japan).

CD-1 mice = conditions: reported value, no reference given; cited from earlier work
[4] = molecular target: alternative NADH dehydrogenase; parameters: method as in PMID 19564154, PMID 24169795; conditions: Mycobacterium smegmatis; cited from earlier work
[5] = molecular target: malate:quinone oxidoreductase; parameters: method as in PMID 19564154; conditions: Mycobacterium smegmatis; cited from earlier work
[6] = parameters: method as in PMID 22908162, PMID 24733472; conditions: after iv administration, after 6 h; cited from earlier work
[7] = no reference given, cited from earlier work

Molecule: CCCCCCCCCCCC(=O)N[C@@H](CCN)C(=O)N[C@H](C(=O)N[C@@H](CCN)C(=O)N[C@H]1CSSC[C@H](C(N)=O)NC(=O)[C@H](CCN)NC(=O)[C@H](CCN)NC(=O)[C@H](CCCC)NC(=O)[C@@H](Cc2ccccc2)NC(=O)[C@H](CCN)NC1=O)[C@@H](C)O [Analog 39, dodecanoyl-Dab-Thr-Dab-Cys-Dab-Phe-Nle-Dab-Dab-Cys] (Lauroyl-[Dab]T[Dab]C[Dab][dF][Nle][Dab][Dab][dC]-NH2; disulfide 4-10)
- MIC S. aureus DR, MR SAU.1616 (S. aureus): 8 µg/mL (≈ 6.32 µM)
- MIC S. aureus DR, MS SAU.278 (S. aureus): 2 µg/mL (≈ 1.58 µM)
- MIC S. aureus MR ATTC 43300 (S. aureus): 1 µg/mL (≈ 0.79 µM)
- MIC S. aureus MR SAU.1118 (S. aureus): 1 µg/mL (≈ 0.79 µM)
- MIC S. aureus MS ATTC 29213 (S. aureus): 1 µg/mL (≈ 0.79 µM)
- MIC P. aeruginosa (P. aeruginosa ATTC 9027; ATTC 9027): 1 µg/mL (≈ 0.79 µM)
- MIC E. coli (E. coli ATTC 8739; ATTC 8739): 4 µg/mL (≈ 3.16 µM)
- MIC E. faecalis Wild type ATTC 29212 (E. faecalis ATTC 29212; ATTC 29212): 2 to 4 µg/mL
- MIC E. coli NDM-1 (E. coli): 0.5 µg/mL (≈ 0.395 µM)
- MIC E. coli VAL 5 (E. coli): 0.5 µg/mL (≈ 0.395 µM)
- MIC E. coli MAC 21a (E. coli): 1 µg/mL (≈ 0.79 µM)
- MIC E. coli VAL 10 (E. coli): 0.5 µg/mL (≈ 0.395 µM)
- MIC P. aeruginosa 38a (P. aeruginosa): 1 µg/mL (≈ 0.79 µM)
- MIC P. aeruginosa 40b (P. aeruginosa): 2 µg/mL (≈ 1.58 µM)

Molecule: CC[C@H](C)CCCCC(=O)N[C@@H](CCN)C(=O)N[C@H](C(=O)N[C@@H](CCN)C(=O)N[C@H]1CCNC(=O)[C@H]([C@@H](C)O)NC(=O)[C@H](CCN)NC(=O)[C@H](CCN)NC(=O)[C@H](CC(C)C)NC(=O)[C@@H](Cc2ccccc2)NC(=O)[C@H](CCN)NC1=O)[C@@H](C)O [Polymyxin B] (X1-[Dab]T[Dab][Dab][Dab][dF]L[Dab][Dab]T; lactam 4-C; N-terminus assumed)
- MIC S. aureus (S. aureus ATTC 6538; S. aureus ATTC 6538, Mueller Hinton Broth, 18–20 h): >32 µg/mL
- MIC P. aeruginosa (P. aeruginosa ATTC 9027; P. aeruginosa ATTC 9027, Mueller Hinton Broth, 18–20 h): 2 µg/mL (≈ 1.66 µM)
- MIC E. coli (E. coli ATTC 8739; E. coli ATTC 8739, Mueller Hinton Broth, 18–20 h): 1 µg/mL (≈ 0.831 µM)
- MIC E. coli NDM-1 (E. coli): 0.5 µg/mL (≈ 0.415 µM)
- MIC E. coli VAL 5 (E. coli): 0.25 µg/mL (≈ 0.208 µM)
- MIC E. coli MAC 21a (E. coli): 0.25 µg/mL (≈ 0.208 µM)
- MIC E. coli VAL 10 (E. coli): 0.25 µg/mL (≈ 0.208 µM)
- MIC P. aeruginosa 38a (P. aeruginosa; resistant to ceftazidime, ciprofloxacin, imipenem, piperacillin-tazobactam): 1 µg/mL
- MIC P. aeruginosa 40b (P. aeruginosa; resistant to imipenem): 2 µg/mL (≈ 1.66 µM)
- % of stained cells PI (E. coli (ATCC 25922) [1]; 5 min): 11%
- % of stained cells BOX (E. coli (ATCC 25922) [1]; 10 min): 35%
- % of stained cells PI (E. coli (ATCC 25922) [1]; 10 min): 20%
- % of stained cells BOX (E. coli (ATCC 25922) [1]; 15 min): 17%
- % of stained cells PI (E. coli (ATCC 25922) [1]; 15 min): 60%
- % of stained cells BOX (E. coli (ATCC 25922) [1]; 30 min): 13%
- % of stained cells PI (E. coli (ATCC 25922) [1]; 30 min): 68%
- % of stained cells BOX (E. coli (ATCC 25922) [1]; 60 min): 23%
- % of stained cells PI (E. coli (ATCC 25922) [1]; 60 min): 57%
- % of stained cells BOX (E. coli (ATCC 25922) [1]; 120 min): 17%
- % viability reduction (E. coli (ATCC 25922) [2]; 5 min): 0%
- % viability reduction (E. coli (ATCC 25922) [2]; 10 min): 20%
- % viability reduction (E. coli (ATCC 25922) [2]; 15 min): 34%
- % viability reduction (E. coli (ATCC 25922) [2]; 30 min): 65%
- % viability reduction (E. coli (ATCC 25922) [2]; 60 min): 87%
- % viability reduction (E. coli (ATCC 25922) [2]; 120 min): 98%
- Effect on cell morphology (TEM) (E. coli (ATCC 25922) [3]): numerous protrusions were observed at the outer cell membrane and even some completely lysed membranes
- LD50 reported for subcutaneous administration (CD-1 mice): 59.5 mg/kg
- IC50 alternative NADH dehydrogenase [4]: 1.6 µg/mL (≈ 1.33 µM)
- IC50 malate:quinone oxidoreductase [5]: 4.3 µg/mL (≈ 3.57 µM)
- kidney concentration relative to serum concentration [6]: more than 30 times

Molecule: CN[C@H](CC(C)C)C(=O)N[C@H]1C(=O)N[C@@H](CC(N)=O)C(=O)N[C@H]2C(=O)N[C@H]3C(=O)N[C@H](C(=O)N[C@H](C(=O)O)c4cc(O)cc(O)c4-c4cc3ccc4O)[C@H](O)c3ccc(c(Cl)c3)Oc3cc2cc(c3O[C@@H]2O[C@H](CO)[C@@H](O)[C@H](O)[C@H]2O[C@H]2C[C@](C)(N)[C@H](O)[C@H](C)O2)Oc2ccc(cc2Cl)[C@H]1O [Vancomycin]
- MIC (S. aureus ATTC 6538; Staphylococcus aureus, ATTC6538, read-out: MIC S. aureus): 1 µg/mL (≈ 0.69 µM)
- MIC (S. aureus; read-out: MIC S. aureus DR, MR SAU.1616): 2 µg/mL (≈ 1.38 µM)
- MIC (S. aureus; read-out: MIC S. aureus DR, MS SAU.278): 2 µg/mL (≈ 1.38 µM)
- MIC (S. aureus; read-out: MIC S. aureus MR ATTC 43300): 2 µg/mL (≈ 1.38 µM)
- MIC (S. aureus; read-out: MIC S. aureus MR SAU.1118): 0.5 µg/mL (≈ 0.345 µM)
- MIC (S. aureus; read-out: MIC S. aureus MS ATTC 29213): 0.5 to 1 µg/mL (≈ 0.345 to 0.69 µM)
- MIC (E. faecalis ATTC 29212; Enterococcus faecalis, ATTC29212, read-out: MIC E. faecalis Wild type ATTC 29212): 2 µg/mL (≈ 1.38 µM)

Molecule: Somatostatin
- half-life ([7]; administered in vivo): 2 to 3 min

Molecule: lanreotide [reference compound]
- half-lives ([7]; metabolic degradation): 2 to 3 h
